# Laboratory results reported in article PMC7356157, “Shorter Antibacterial Peptide Having High Selectivity for E. coli Membranes and Low Potential for Inducing Resistance” (Microorganisms, 2020).
# Like-named read-outs stand apart in the source and are kept apart here. No end group written: not given here.
# How the values were obtained:
# [1] = system: E. coli clinical isolate 4; experiment: Resistance profile of clinical isolate (VITEK-2); format: cell-based; conditions: Escherichia coli, isolate from urine
# Source text: (§1) Approximately 50 bacterial samples were then collected from E. coli-infected patients for evaluating activity of the peptides against some clinical isolates. These samples were identified and biochemically and metabolically characterised using the VITEK-2 equipment. Isolates were profiled regarding their resistance or susceptibility to a panel of conventionally used antibiotics.
# [2] = system: E. coli clinical isolate 44; experiment: Resistance profile of clinical isolate (VITEK-2); format: cell-based; conditions: Escherichia coli, isolate from blood
# Source text: as §1
# [3] = system: E. coli clinical isolate 40; experiment: Resistance profile of clinical isolate (VITEK-2); format: cell-based; conditions: Escherichia coli, isolate from blood
# Source text: as §1
# E. coli [4] = experiment: microbe, parasite or virus in culture; conditions: Escherichia coli, read-out: Individual gentamicin MIC
# Protocol: (§5) The checkerboard method was used for evaluating peptide antibacterial activity in combination with antibiotics [43]. […] Absorbance was measured at 620 nm and individual peptide and antibiotic MIC and combined MIC were obtained. […] The fractional inhibitory concentration index (FICI) was then calculated as the sum of peptide FIC + antibiotic FIC. A ≤ 0.5 FICI indicated synergy, 0.5 to ≤4 FICI indifference, and >4 FICI antagonism [45].
# (§6) The results were interpreted by taking the lowest checkerboard FIC index (previously reported method 3) [44].
# [5] = system: E. coli N°4 (clinical isolate); conditions: broth microdilution; for MIC E. coli N°4: clinical isolate from urine
# Protocol: (§2) The standard broth microdilution method was used for determining the peptides’ MIC [41]. […] Bacteria in Müller–Hinton broth (MHB) were used as negative control. […] The MIC was determined as the lowest peptide concentration at which bacterial growth was not detected.
# as §1
# [6] = system: E. coli N°40 (clinical isolate); conditions: broth microdilution; for MIC E. coli N°40: clinical isolate from blood
# Protocol: as §2, §1
# [7] = system: E. coli N°44 (clinical isolate); conditions: broth microdilution; for MIC E. coli N°44: clinical isolate from blood, ESBL (+)
# Protocol: as §2, §1
# [8] = system: E. coli (ATCC strains and clinical isolates); experiment: MIC summarised over several E. coli strains; format: cell-based
# Protocol: The standard broth microdilution method was used for determining the peptides’ MIC [41]. Briefly, serial peptide dilutions (100 to 0.2 µM concentration) were incubated in 96-well plates at 100 μL/well final volume for 18 h at 37 °C in a damp chamber with ~5 × 10^5 CFU/mL bacterial inoculum (calculated from the calibration curve equation previously obtained for each strain (Figure S1)). Optical density (OD) was measured at 620 nm after 18 h on a microplate reader. Bacteria in Müller–Hinton broth (MHB) were used as negative control. […] The MIC was determined as the lowest peptide concentration at which bacterial growth was not detected.
# E. coli 35218 = format: cell-based
# Protocol: (§3) Bactericidal activity was evaluated by sowing an aliquot of Luria Bertani agar (LBA) in the wells where no growth had been detected in the MIC assay.
# E. coli ML35 = experiment: Permeabilising internal membrane (ONPG); format: cell-based; conditions: 1× MIC
# P. aeruginosa 27853 [9] = experiment: MIC by broth microdilution; format: cell-based; conditions: MHB, 18 h, 37 °C
# E. coli [10] = system: E. coli
# Protocol: as §5, §6
# [11] = system: E. coli 35218 (ampicillin-resistant ATCC 35218 strain); format: cell-based; conditions: broth microdilution
# E. coli ATCC 25922 [12] = format: cell-based; conditions: for MIC E. coli 25922: broth microdilution, MHB, ~5 × 10^5 CFU/mL, 18 h, 37 °C, OD 620 nm, 100 to 0.2 µM; for MIC against E. coli 25922, MHB: no serum
# E. coli [13] = system: E. coli; remark: listed apart in the source
# Protocol: as §5, §6
# E. coli ATCC 11775 [14] = format: cell-based; conditions: broth microdilution
# E. coli ML35 43827 [15] = experiment: Bactericidal activity (MBC); format: cell-based
# Protocol: as §3
# P. aeruginosa 27853 [16] = experiment: Bactericidal activity (MBC); format: cell-based; conditions: LBA, 18 h, 37 °C
# Protocol: as §3
# E. coli ATCC 25922 [17] = experiment: Bactericidal activity (MBC); format: cell-based; conditions: aliquots of no-growth MIC wells on LBA, 18 h, 37 °C; kills 99.9%
# Protocol: as §3
# [18] = system: human red blood cells (hRBC); experiment: Haemolytic activity (MHC); format: cell-based; conditions: for MHC (minimum haemolytic concentration): 5% v/v hRBC in 1X PBS, 200–0.39 µM, 1 h, 37 °C, absorbance 560 nm
# Protocol: A haemolytic activity assay was used for determining whether peptides acted on hRBC membrane by calculating the minimum haemolytic concentration (MHC). Briefly, 100 µL serial dilutions of peptides were incubated in a 96-well plate with an equal volume of a fresh hRBC suspension at 5% v/v in 1X PBS (200–0.39 µM final peptide concentrations). The samples were spun at 1000× g for 5 min after having been incubated at 37 °C for 1 h and a Multiskan spectrometer (Thermo Fisher) was used for measuring 100 µL supernatant absorbance at 560 nm. Treated hRBC absorbance 0.1% Triton X-100 or 100% haemolysis was used as positive control.
# [19] = system: E. coli N°44 (clinical isolate); format: cell-based
# Protocol: as §3
# (§4) Approximately 50 bacterial samples were then collected from E. coli-infected patients for evaluating activity of the peptides against some clinical isolates. These samples were identified and biochemically and metabolically characterised using the VITEK-2 equipment. Isolates were profiled regarding their resistance or susceptibility to a panel of conventionally used antibiotics. Three E. coli isolates having different resistance profiles were then selected following such characterisation (Appendix A): • Isolate 4 (from urine): extended spectrum beta-lactamase (ESBL) (-), resistant to ampicillin, quinolones and co-trimoxazole. • Isolate 40 (from blood): ESBL (-), resistant to ampicillin, 1st-generation cephalosporins and co-trimoxazole. • Isolate 44 (from blood): ESBL (+), resistant to aminoglycosides, quinolones, β-lactams (including 1st-, 3rd- and 4th-generation cephalosporins).
# E. coli ML35 43827 [20] = format: cell-based; conditions: broth microdilution
# E. coli ATCC 25922 [21] = experiment: Potential for inducing bacterial resistance (serial subculture at 0.5 MIC); format: cell-based; conditions: repeated treatment with 0.5× MIC, 18 days, two independent assays in duplicate
# Protocol: The MIC against this subculture was then determined by micro-dilution in broth. […] Two independent assays were carried out in duplicate. MIC changes were plotted for each subculture (day of assay).
# E. coli 25922 = experiment: Antibacterial activity in the presence of human sera; format: cell-based; conditions: for MIC against E. coli 25922, Serum (without Pre-Incubation): peptide diluted in fresh human sera (100%), then inoculum in MHB ~5 × 10^5 CFU/mL, 18 h, 37 °C
# Protocol: The second assay involved peptide dilution in fresh human sera (100%) pre-incubated for 6 h at 37 °C in a humid chamber before putting them in contact with the bacterial inoculum diluted in MHB (~5 × 10^5 CFU/mL). The assay was incubated and read as mentioned in the microdilution section.
# E. coli ATCC 11775 [22] = experiment: Bactericidal activity (MBC); format: cell-based
# Protocol: as §3
# [23] = system: E. coli N°40 (clinical isolate); format: cell-based
# Protocol: as §3, §4
Molecule,MBC E. coli 35218 (E. coli 35218),MIC P. aeruginosa 27853 (P. aeruginosa 27853 [9]),MIC E. coli 35218 [11],MIC E. coli 25922 (E. coli ATCC 25922 [12]),"MIC against E. coli 25922, MHB (E. coli ATCC 25922 [12])",MIC E. coli 11775 (E. coli ATCC 11775 [14]),MBC E. coli ML35 43827 (E. coli ML35 43827 [15]),MBC E. coli 25922 (E. coli ATCC 25922 [17]),MHC (minimum haemolytic concentration) [18],MBC E. coli N°44 [19],MIC E. coli ML35 43827 (E. coli ML35 43827 [20]),"MIC against E. coli 25922, Serum (without Pre-Incubation) (E. coli 25922)",MIC E. coli N°4 [5],MIC E. coli N°40 [6],MIC E. coli N°44 [7],further results
"CNC(C)C1CCC(N)C(OC2C(N)CC(N)C(OC3OCC(C)(O)C(NC)C3O)C2O)O1 (stereo not drawn) [Gentamicin, gentamicin]",,,,,,,,,,,,,,,,MIC [1]: ≤ 1 µg/mL; MIC [2]: ≥ 16 µg/mL; MIC [3]: ≤ 1 µg/mL; MIC (E. coli [4]): 0.5 µg/mL; MIC E. coli N°4 (antibiotics) ([5]; clinical isolate): 2 µg/mL; MIC E. coli N°40 (antibiotics) ([6]; clinical isolate): 1 µg/mL; MIC E. coli N°44 (antibiotics) ([7]; clinical isolate): >16 µg/mL
RKKKMKKALQYIKLLKE-NH2 [Peptide 35409-1],6 µM,100 µM,6 µM,25 µM,25 µM,>100 µM,3 µM,25 µM,>200 µM,100 µM,3 µM,12.5 µM,>100 µM,25 µM,12.5 µM,"average MIC against E. coli [8]: 14.3 µM; time at which maximum permeabilisation was reached (E. coli ML35; 1X PBS, 1.5 mM ONPG, 37 °C, 405 nm every 30 min for 4.5 h, triplicate): 1.5 h; permeabilisation of E. coli internal membrane (E. coli ML35; ONPG, 405 nm, 4.5 h): did act on E. coli internal membrane; Interpretation (E. coli [10]; peptide + gentamicin): Indifference; x MIC Combination, Peptide (E. coli [10]; with gentamicin, fraction of individual peptide MIC (individual = 1)): 1/0.25 x MIC; Interpretation (E. coli [13]; peptide + ciprofloxacin): Indifference; x MIC Combination, Peptide (E. coli [13]; with ciprofloxacin, fraction of individual peptide MIC (individual = 1)): 1/1 x MIC; MBC P. aeruginosa 27853 (P. aeruginosa 27853 [16]): 100 µM; haemolysis relative to average MIC ([18]; concentration as multiple of average MIC 14.3 µM): did not induce haemolysis at 14-fold higher concentrations; fold increase in MIC over initial MIC (E. coli ATCC 25922 [21]): eight-fold; MIC against E. coli 25922, Serum (6 h Pre-Incubation) (E. coli 25922; peptide in fresh human sera (100%) pre-incubated 6 h at 37 °C before inoculum, stability read-out): 50 µM"
KKMKKALQYIKLLK-NH2 [Peptide 35409-13],100 µM,>100 µM,25 µM,50 µM,50 µM,100 µM,50 µM,50 µM,>200 µM,50 µM,25 µM,50 µM,>100 µM,50 µM,25 µM,"FIC Index (E. coli [10]; peptide + gentamicin, lowest checkerboard FIC index (method 3)): 0.75; FIC P (peptide) (E. coli [10]; with gentamicin): 0.25; FIC Index (E. coli [13]; peptide + ciprofloxacin, lowest checkerboard FIC index (method 3)): 3; FIC P (peptide) (E. coli [13]; with ciprofloxacin): 1; MBC E. coli 11775 (E. coli ATCC 11775 [22]): > 100 µM; MBC E. coli N°40 [23]: 100 µM"
